For this experiment, the target named is Glucose-6-phosphate 1-dehydrogenase (Leuconostoc mesenteroides) (UniProt P11411). Nature of the experiment: Leuconostoc G6PDH inhibition potency, SAR follow-up, counter-screen for TbHK1 inhibitor project, biochemical, analogue series, IC50 (AID 2579). Particulars: Purified L. mesenteroides G6PDH enzyme assay, counterscreen. In general terms: Counterscreens check selectivity or assay interference.

Calls of active or inactive are those of the source. No rule for the calls is given here. A value given as a limit tells only on which side of the number the result lay.

Glucose-6-phosphate 1-dehydrogenase (Leuconostoc mesenteroides), sequence (P11411 whole entry, looked up): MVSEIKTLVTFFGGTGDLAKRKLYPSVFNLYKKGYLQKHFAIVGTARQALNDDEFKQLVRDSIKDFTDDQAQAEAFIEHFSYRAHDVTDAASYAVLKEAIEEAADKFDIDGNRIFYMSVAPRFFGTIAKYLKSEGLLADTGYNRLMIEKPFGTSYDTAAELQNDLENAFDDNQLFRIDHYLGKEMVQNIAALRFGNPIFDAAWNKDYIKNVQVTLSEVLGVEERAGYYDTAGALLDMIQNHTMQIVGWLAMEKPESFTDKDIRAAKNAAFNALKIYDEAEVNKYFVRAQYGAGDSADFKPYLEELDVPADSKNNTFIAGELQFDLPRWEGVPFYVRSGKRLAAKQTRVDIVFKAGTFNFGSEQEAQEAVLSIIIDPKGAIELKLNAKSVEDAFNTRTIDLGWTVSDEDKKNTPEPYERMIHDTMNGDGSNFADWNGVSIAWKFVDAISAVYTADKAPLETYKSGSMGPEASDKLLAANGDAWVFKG

In the case of `COc1ccc(C(=O)Nc2cc(Cl)ccc2O)cc1`, the IC50 is > 25 µM (inactive).

With `COc1ccc(C(=O)Nc2cc(Cl)c(C)cc2C(=O)O)cc1`, the IC50 was > 25 µM (inactive).

As for `CC(C)(C)c1ccc(C(=O)Nc2cc(Cl)c(F)cc2C(=O)O)cc1`, the IC50 was > 25 µM (inactive).

`COc1ccc(C(=O)Nc2cc(Cl)c(Br)cc2C(=O)O)cc1`: the IC50 was > 25 µM (inactive).

Consider `CC(C)(C)c1ccc(C(=O)Nc2cc(Cl)ccc2-c2nn[nH]n2)cc1`, for which the IC50 is > 25 µM (inactive).

With `CC1(c2ccc(C(=O)Nc3cc(Cl)ccc3C(=O)O)cc2)CC1`, the IC50 was > 25 µM (inactive).

Regarding `COc1ccc(N2C(=O)c3ccc(Cl)cc3C2=O)cc1`, the IC50 is > 25 µM (inactive).

Take `Cc1cc(C(C#N)c2ccc(Cl)cc2)c(Cl)cc1NC(=O)c1cc(I)cc(I)c1O` (centres undefined): the IC50 was > 25 µM (inactive).

As to `O=c1c(O)c(-c2ccc(O)c(O)c2)oc2cc(O)cc(O)c12`, the IC50 was > 25 µM (inactive).

Regarding `CC(C)(C)c1ccc(C(=O)Nc2cc(Cl)c(Br)cc2C(=O)O)cc1`, the IC50 was > 25 µM (inactive).

Turning to `C=C(C)c1ccc(C(=O)Nc2cc(Cl)ccc2C(=O)O)cc1`, the IC50 was > 25 µM (inactive).

As for `CC(C)(C)c1ccc(C(=O)Nc2cc(Cl)ccc2O)cc1`, the IC50 was > 25 µM (inactive).

Take `CC(C)(C)c1ccc(C(=O)Nc2cc(Br)ccc2C(=O)O)cc1`: the IC50 was > 25 µM (inactive).

Consider `CC(C)(C)c1ccc(C(=O)Nc2cc(Cl)c(Cl)cc2C(=O)O)cc1`, for which the IC50 is > 25 µM (inactive).

By IC50 is commonly meant the concentration that gives 50% inhibition.

The record behind these values is PubChem BioAssay AID2579 (University of Pittsburgh Molecular Library Screening Center, 2010).
